In brackets after ≈: the same amount, converted by molar mass. Where two headings read alike, the source gives them in different places. No end group written: not given here.
Assays:
E. coli ATCC25922 = test system: E. coli ATCC25922
Description: (§1) Bacteria was inoculated on Mueller-Hinton (MH) agar plate, the inoculated agar plate was inverted to grow single colonies. A single colony was inoculated in 3 mL MH broth, and the broth was cultured with constant shaking at constant temperature until turbid. 30 μL of bacterial suspension was then transferred to 3 mL of fresh MH broth, and the broth was cultured with shaking at constant temperature until OD600≈0.5. 10 μL bacterial suspension was transferred to 10 mL fresh MH broth and then vortexed to mix well. […] In addition, 100 μL of bacterial suspension was added to a well as positive control, and 100 μL of MH broth was added to a well as negative control. Each testing condition and controls was performed with 6 repeats.
(§2) The aforementioned antimicrobial peptides were used as controls in the same experiments described in the second, third, fourth and fifth embodiments.

E. coli EPEC O144:K26 = test system: E. coli EPEC O144:K26
Description: as §1, §2

E. coli EPEC O44:K74 = test system: E. coli EPEC O44:K74
Description: as §1, §2

E. coli EPEC O78:K80 = test system: E. coli EPEC O78:K80
Description: as §1, §2

E. coli K 12 = test system: E. coli K 12
Description: as §1, §2

E. coli K 88 = test system: E. coli K 88
Description: as §1, §2

P. aeruginosa CMCC27853 = test system: P. aeruginosa CMCC27853
Description: as §1, §2

S. aureus ATCC25923 = test system: S. aureus ATCC25923
Description: as §1, §2

S. enteritidis CMCC50041 = test system: S. enteritidis CMCC50041
Description: as §1, §2

S. epidermidis ATCC12228 = test system: S. epidermidis ATCC12228
Description: as §1, §2

S. typhimurium CMCC50013 = test system: S. typhimurium CMCC50013
Description: as §1, §2

porcine erythrocytes = test system: porcine erythrocytes
Description: Blood was collected from porcine vena cava with heparin added, and mixed with RPMI1640 medium at a volume ratio of 1:1. After centrifuging with FICOLL-PAQUE™, circular and milky peripheral blood mononuclear cells (PMBCs) were drawn for later use, and erythrocytes at the bottom were collected. The erythrocytes were washed with 1×PBS until the supernatant was colorless. Then the washed erythrocytes were diluted 90-fold (1:89) with 1×PBS to determine hemolysis activity.
Triton X-100 (final concentration 1%) was used as positive control, and 10 uL 1×PBS was used as negative control. Each group was performed with 6 replications. Cells were cultured for 24 hrs at 37° C. in a cell culture incubator, and followed by centrifugation at 1500 rpm for 20 min. Then supernatant was transferred to a new 96-well plate to measure the values of OD at 414 nm and 546 nm using a microplate reader, and ΔOD was calculated. The formula for calculating hemolysis ratio is as follows: hemolysis ratio (%)=100%*(ΔOD treatment group−ΔOD negative control)/(ΔOD positive control−ΔOD negative control).
as §2

[1] = test system: S. choleraesuis CMCC50020
Description: The above results are average of 6 independent experimental repeats.

[2] = test system: porcine peripheral mononuclear cells; details: porcine PBMCs, peptide ≦256 μg/mL, 24 hrs
Description: Purified PBMCs were diluted to 1×10^6 cells/mL, and cells were seeded with 90 uL per well in a 96-well plate. Further, background control well (100 μL RMPI1640 medium), low level control well (90 μL cell culture+10 μL PBS), and high level control well (90 μL cell culture+10 μL 20% Triton X-100) were also prepared. The 96-well plate was cultured at 37° C. for 2 hrs in a 5% CO2 incubator. […] Each group of experiment (each concentration) was repeated for six replications. After culturing for 24 hrs, 10 μL TritonX-100 (20%) was added to each positive control well, and mixed by pipetting. The plate was further incubated for 15 min. After culturing, the cells were centrifuged at 1500 rpm for 10 min. 60 μL of supernatant was drawn carefully from the center of each well and transferred to corresponding wells of a transparent new 96-well plate. 30 uL of LDH diluent was added to each well. The plate was cultured at room temperature for 30 min with vibration in a dark environment. OD values were recorded at 492 nm and 900 nm using a microplate reader for calculating ΔOD value. […]

[3] = test system: Porcine macrophage cells (3D4/2 cell line); experiment: LPS-induced inflammation in porcine macrophages (cytokine mRNA); assay type: cell-based; details: FIG. 5
Description: Porcine macrophage cells (3D4/2 cell line) were cultured on RPMI-1640 medium with 10% fetal bovine serum, at 37° C. in a 5% CO2 cell incubator, until the cells formed a monolayer with about 80-90% confluency. The cells were counted and plated. The cells were seeded to a 6-well plate at 1×10^6/well, RPMI-1640 complete medium was added, and the cells were cultured to 80% confluency. Then the medium was replaced by fresh serum-free RPMI-1640 medium (2 mL). […] Each group of experiments was repeated for six replications. After incubation for 24 hrs, cells were collected and total RNA was extracted using Trizol. cDNA was obtained by reverse transcription. Relative mRNA expression of IL-6, IL-8 and IL-22 was detected. The relative mRNA expression of IL-22, IL-8 and IL-6 were measured by quantitative fluorescence method. GAPDH gene was used as a internal reference gene.

Compound | MIC (E. coli ATCC25922; ATCC25922, 24 h) | MIC (E. coli EPEC O144:K26; EPEC O144:K26, 24 h) | MIC (E. coli EPEC O44:K74; EPEC O44:K74, 24 h) | MIC (E. coli EPEC O78:K80; EPEC O78:K80, 24 h) | MIC (E. coli K 12; K 12, 24 h) | MIC (E. coli K 88; K 88, 24 h) | MIC (P. aeruginosa CMCC27853; CMCC27853, 24 h) | MIC (S. aureus ATCC25923; ATCC25923, 24 h) | MIC (S. enteritidis CMCC50041; CMCC50041, 24 h) | MIC (S. epidermidis ATCC12228; ATCC12228, 24 h) | MIC (S. typhimurium CMCC50013; CMCC50013, 24 h) | MIC ([1]; CMCC50020, 24 h) | further results
VKFFRKLKKSVKEKIGKEFKR [WY-21] |  |  |  |  |  |  |  |  |  |  |  |  | MIC (E. coli ATCC25922; E. coli ATCC25922, 24 hrs at 37° C., MH broth): 8 µg/mL; MIC (E. coli EPEC O144:K26; E. coli EPEC O144:K26, 24 hrs at 37° C., MH broth): 16 µg/mL; MIC (E. coli EPEC O44:K74; E. coli EPEC O44:K74, 24 hrs at 37° C., MH broth): 8 µg/mL; MIC (E. coli EPEC O78:K80; E. coli EPEC O78:K80, 24 hrs at 37° C., MH broth): 16 µg/mL; MIC (E. coli K 12; E. coli K 12, 24 hrs at 37° C., MH broth): 4 µg/mL; MIC (E. coli K 88; E. coli K 88, 24 hrs at 37° C., MH broth): 8 µg/mL; MIC (P. aeruginosa CMCC27853; P. aeruginosa CMCC27853, 24 hrs at 37° C., MH broth): 8 µg/mL; MIC (S. aureus ATCC25923; S. aureus ATCC25923, 24 hrs at 37° C., MH broth): 8 µg/mL; MIC (S. enteritidis CMCC50041; S. enteritidis CMCC50041, 24 hrs at 37° C., MH broth): 64 µg/mL; MIC (S. epidermidis ATCC12228; S. epidermidis ATCC12228, 24 hrs at 37° C., MH broth): 32 µg/mL; MIC (S. typhimurium CMCC50013; S. typhimurium CMCC50013, 24 hrs at 37° C., MH broth): 16 µg/mL; hemolysis ratio (porcine erythrocytes; peptide 512 μg/mL, 24 hrs at 37° C.): less than 5%; MIC ([1]; S. choleraesuis CMCC50020, 24 hrs at 37° C., MH broth): 16 µg/mL; LDH releasing rate [2]: less than 10%
CC(C)C[C@H](NC(=O)[C@H](CCCNC(=N)N)NC(=O)CNC(=O)CNC(=O)[C@@H](N)CCCNC(=N)N)C(=O)N[C@H]1CSSC[C@@H](C(=O)N[C@H](C(=O)NCC(=O)N[C@@H](CCCNC(=N)N)C(N)=O)C(C)C)NC(=O)[C@H](C(C)C)NC(=O)[C@@H]2CSSC[C@H](NC(=O)[C@H](Cc3ccc(O)cc3)NC1=O)C(=O)N[C@@H](CCCNC(=N)N)C(=O)N[C@@H](CCCNC(=N)N)C(=O)N[C@@H](CCCNC(=N)N)C(=O)N[C@@H](Cc1ccccc1)C(=O)N2 [PG-1] | 4 µg/mL (≈ 1.86 µM) | 64 µg/mL (≈ 29.7 µM) | 32 µg/mL (≈ 14.8 µM) | 16 µg/mL (≈ 7.42 µM) | 8 µg/mL (≈ 3.71 µM) | 8 µg/mL (≈ 3.71 µM) | 8 µg/mL (≈ 3.71 µM) | 2 µg/mL (≈ 0.928 µM) | 16 µg/mL (≈ 7.42 µM) | 4 µg/mL (≈ 1.86 µM) | 4 µg/mL (≈ 1.86 µM) | 4 µg/mL (≈ 1.86 µM) | hemolysis activity (compared with WY-21) (porcine erythrocytes; FIG. 4): higher than WY-21
SWLSKTAKKLENSAKKRIAIAIQGGPR [CP-1] | 4 µg/mL | 128 µg/mL | 32 µg/mL | 16 µg/mL | 8 µg/mL | 4 µg/mL | 16 µg/mL | 128 µg/mL | 16 µg/mL | 128 µg/mL | 8 µg/mL | 8 µg/mL | effect on LPS-induced inflammation [3]: no effects

— US9475843B2 (Zhejiang University, priority 2015, dated 2016)
